Assay results as given in patent US20220009910A1, “TYROSINE KINASE 2 INHIBITORS, PREPARATION METHODS AND MEDICINAL USES THEREOF” (Eternity Bioscience Inc., priority 2020, published 2022).

Key:
Tyk2 JH2 Pseudokinase = biological target: T1, Tyk2 JH2 Pseudokinase (Homo sapiens, UniProt P29597); assay: KdELECT Competition Binding Assay; conditions: 11-point 3-fold dilution series, qPCR readout
T1 construct: purchased Eurofins DiscoverX Corporation (CRO); host or cells: E. coli BL21-derived (T7 phage) or HEK-293
Experimental: The KdELECT Competition Binding Assay is performed by a CRO, Eurofins DiscoverX Corporation following the established standard protocol (DiscoverX, San Diego, Calif.). Briefly, Kinase-tagged T7 phage strains were prepared in an E. coli host derived from the BL21 strain. E. coli were grown to log-phase and infected with T7 phage and incubated with shaking at 32° C. until lysis. The lysates were centrifuged and filtered to remove cell debris. The remaining kinases were produced in HEK-293 cells and subsequently tagged with DNA for qPCR detection. Streptavidin-coated magnetic beads were treated with biotinylated small molecule ligands for 30 minutes at room temperature to generate affinity resins for kinase assays. The liganded beads were blocked with excess biotin and washed with blocking buffer (SeaBlock (Pierce), 1% BSA, 0.05% Tween 20, 1 mM DTT) to remove unbound ligand and to reduce nonspecific binding. Binding reactions were assembled by combining kinases, liganded affinity beads, and test compounds in 1× binding buffer (20% SeaBlock, 0.17×PBS, 0.05% Tween 20, 6 mM DTT). Test compounds were prepared as 111-fold stocks in 100% DMSO. Kds were determined using an 11-point 3-fold compound dilution series with three DMSO control points. All compounds for Kd measurements are distributed by acoustic transfer (non-contact dispensing) in 100% DMSO. The compounds were then diluted directly into the assays such that the final concentration of DMSO was 0.9%. All reactions performed in polypropylene 384-well plate. Each was a final volume of 0.02 mL. The assay plates were incubated at room temperature with shaking for 1 hour and the affinity beads were washed with wash buffer (1×PBS, 0.05% Tween 20). The beads were then re-suspended in elution buffer (1×PBS, 0.05% Tween 20, 0.5 μM non-biotinylated affinity ligand) and incubated at room temperature with shaking for 30 minutes. The kinase concentration in the eluates was measured by quantitative PCR.
Compound Handling: An 11-point 3-fold serial dilution of each test compound was prepared in 100% DMSO at 100-fold final test concentration and subsequently diluted to 1-fold in the assay (final DMSO concentration=1%). Most Kds were determined using a compound top concentration=30,000 nM. If the initial Kd determined was <0.5 nM (the lowest concentration tested), the measurement was repeated with a serial dilution starting at a lower top concentration.

[1] = test system: Tyk2-mediated, IL23-induced STAT3 phosphorylation in human Kit225 T cell line; assay: IL-23_Kit225 T Cell Assay (phosphorylated-STAT3, AlphaLISA); assay type: cell-based; conditions: Kit225 cells, compound 1 hour, human recombinant IL-23 20 minutes, pSTAT3
Experimental: (§1) Kit225 cells (licensed from Professor Toshiyuki Hori, Ritsumeikan University, Japan) were seeded in 384-well plate at a density of 1×10^5 cells/well in 4 μL Hank's Balanced Salt Solution (HBSS, Gibco), and incubated for 2 hours in a humidified, 5% CO2 cell culture incubator at 37° C. The cells were treated with serial diluted compounds for 1 hour and stimulated with human recombinant IL-23 (R&D Systems) for 20 minutes. The treated cells were then lysed and cellular phosphorylated-STAT3 levels were measured by AlphaLISA (PerkinElmer) according to the manufacture's instructions. Inhibition data were calculated by comparison to vehicle control wells for 0% inhibition and non-stimulated control wells for 100% inhibition. Dose response curves were then generated to determine the concentration required to suppress 50% of cellular response (IC50) as derived by non-linear regression analysis using GraphPad Prism.

[2] = test system: Tyk2-mediated, IFNα-induced STAT1 phosphorylation in human Kit225 T cell line; assay: IFNα_Kit225 T Cell Assay (phosphorylated-STAT1, AlphaLISA); assay type: cell-based; conditions: Kit225 cells, compound 1 hour, human recombinant IFNα 20 minutes, pSTAT1; read-out: IFN-α Kit225 (IC50)
Experimental: as §1, with “cells” for “cells (licensed from Professor Toshiyuki Hori, Ritsumeikan University, Japan)”, “0.5×10^5” for “1×10^5”, “HBSS,” for “Hank's Balanced Salt Solution (HBSS, Gibco),”, “IFNα (Biolegend)” for “IL-23 (R&D Systems)”, “phosphorylated-STAT1” for “phosphorylated-STAT3”, “manufacturer's” for “manufacture's”

[3] = test system: IL-12/IL-23 and Type I IFN pathways; conditions: Tokarski et al. 2015; cited from earlier work
[4] = test system: experimental autoimmune disease models (psoriasis, SLE, and IBD); conditions: cited from earlier work

T1 sequence (P29597 589-875 limits assumed): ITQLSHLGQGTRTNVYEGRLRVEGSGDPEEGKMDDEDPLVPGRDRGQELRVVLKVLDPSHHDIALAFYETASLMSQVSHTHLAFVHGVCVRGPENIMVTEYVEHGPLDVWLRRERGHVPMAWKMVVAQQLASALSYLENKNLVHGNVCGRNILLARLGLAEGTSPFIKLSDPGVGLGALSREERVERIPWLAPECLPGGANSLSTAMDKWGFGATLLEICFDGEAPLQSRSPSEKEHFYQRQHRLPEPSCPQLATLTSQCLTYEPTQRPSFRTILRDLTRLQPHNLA

Row | Molecule | Kd (Tyk2 JH2 Pseudokinase) [nM] | IC50 [1] [nM] | IC50 [2] [nM] | block of IL-12/IL-23 and Type I IFN pathways [3] | in vivo efficacy in experimental autoimmune disease models [4]
1 | [2H]C([2H])([2H])NC(=O)c1nnc(NC(=O)C2CC2)cc1Nc1cc(N2CC(OC)C2)cc(-c2ncn(C)n2)c1OC [Example A1, 6-(cyclopropanecarboxamido)-4-((2-methoxy-5-(3-methoxyazetidin-1-yl)-3-(1-methyl-1H-1,2,4-triazol-3-yl)phenyl)amino)-N-(methyl-d3)pyridazine-3-carboxamide] | 0.0035 | 57 | 43 |  | 
2 | CNC(=O)c1nnc(NC(=O)C2CC2)cc1Nc1cc(N2CC(OC)C2)cc(-c2ncn(C)n2)c1OC [Example A2, 6-(cyclopropanecarboxamido)-4-((2-methoxy-5-(3-methoxyazetidin-1-yl)-3-(1-methyl-1H-1,2,4-triazol-3-yl)phenyl)amino)-N-methylpyridazine-3-carboxamide] | 0.004 | 88 | 50 |  | 
3 | [2H]C([2H])([2H])NC(=O)c1nnc(NC(=O)C2CC2)cc1Nc1cc(N2CCC2=O)cc(-c2ncn(C)n2)c1OC [Example A3, 6-(cyclopropanecarboxamido)-4-((2-methoxy-3-(1-methyl-1H-1,2,4-triazol-3-yl)-5-(2-oxoazetidin-1-yl)phenyl)amino)-N-(methyl-d3)pyridazine-3-carboxamide] | 0.0071 | 9.7 | 7.5 |  | 
4 | [2H]C([2H])([2H])NC(=O)c1nnc(NC(=O)C2CC2)cc1Nc1cc(OC2COC2)cc(-c2ncn(C)n2)c1OC [Example A4, 6-(cyclopropanecarboxamido)-4-((2-methoxy-3-(1-methyl-1H-1,2,4-triazol-3-yl)-5-(oxetan-3-yloxy)phenyl)amino)-N-(methyl-d3)pyridazine-3-carboxamide] | 0.037 | 130 | 410 |  | 
5 | BMS986165 |  |  |  | effectively block | substantial in vivo efficacy
